What was measured:
blackgrass = test: Test B pre/postemergence blackgrass; format: in vivo, Alopecurus myosuroides
How it was run: (§1)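 Herbicidal effect was estimated by eye on a ten-point control scale after plants spent twelve to sixteen days in a greenhouse following soil or foliar treatment. Foliar sprays targeted plants at one to four leaves; all doses were formulated in a non-phytotoxic solvent with surfactant.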

surinam grass = test: Test B pre/postemergence surinam grass; format: in vivo, Brachiaria decumbens
How it was run: as §1

cocklebur = test: Test B pre/postemergence cocklebur; format: in vivo, Xanthium strumarium
How it was run: as §1

corn = test: Test B pre/postemergence corn; format: in vivo, Zea mays
How it was run: as §1

crabgrass = test: Test B pre/postemergence crabgrass; format: in vivo, Digitaria sanguinalis
How it was run: as §1

giant foxtail = test: Test B pre/postemergence giant foxtail; format: in vivo, Setaria faberii
How it was run: as §1

pigweed = test: Test B pre/postemergence pigweed; format: in vivo, Amaranthus retroflexus
How it was run: as §1

rape = test: Test B pre/postemergence rape; format: in vivo, Brassica napus
How it was run: as §1

soybean = test: Test B pre/postemergence soybean; format: in vivo, Glycine max
How it was run: as §1

sugar beet = test: Test B pre/postemergence sugar beet; format: in vivo, Beta vulgaris
How it was run: as §1

wheat = test: Test B pre/postemergence wheat; format: in vivo, Triticum aestivum
How it was run: as §1

purple nutsedge = test: Test B pre/postemergence purple nutsedge; format: in vivo, Cyperus rotundus
How it was run: as §1

rice = test: Test B flood test rice; format: in vivo, Oryza sativa
How it was run: (§2)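 Plants were grown to the 2-leaf stage before treatment with test chemical, then held in a greenhouse for twelve to sixteen days. Injury was visually rated against untreated controls on a 0–10 scale, where 0 is no effect and 10 is complete control.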

smallflower flatsedge = test: Test B flood test smallflower flatsedge; format: in vivo, Cyperus difformis
How it was run: as §2

duck salad = test: Test B flood test duck salad; format: in vivo, Heteranthera limosa
How it was run: as §2

bamyardgrass = test: Test B flood test barnyardgrass; format: in vivo, Echinochloa crus-galli
How it was run: as §2

[1] = Postemergence, Rate 62 g/ha, scale 0 to 10, 0 is no effect, 10 is complete control
[2] = Postemergence, Rate 250 g/ha, scale 0 to 10, 0 no effect, 10 complete control
[3] = Preemergence, Rate 31 g/ha, visual rating, scale 0 to 10 (0 no effect, 10 complete control)
[4] = Preemergence, Rate 62 g/ha, scale 0 to 10, 0 is no effect, 10 is complete control
[5] = Preemergence, Rate 125 g/ha, scale 0 to 10 (0 no effect, 10 complete control)
[6] = Preemergence, Rate 250 g/ha, scale of 0 to 10 where 0 is no effect and 10 is complete control
[7] = Rate 31 g/ha, Postemergence, scale 0 to 10
[8] = Rate 125 g/ha, Postemergence, scale 0 to 10, 0 no effect, 10 complete control
[9] = Rate 125 g/ha, Postemergence section (flood test species), scale 0 to 10, 0 no effect, 10 complete control
[10] = Rate 250 g/ha, headed Pre-emergence (flood test species), scale 0 to 10 (0 no effect, 10 complete control)
[11] = Rate 500 g/ha, Postemergence section of Table B, 0 to 10 scale (0 no effect, 10 complete control)
[12] = Rate 500 g/ha, headed Pre-emergence (flood test species), scale 0 to 10 (0 no effect, 10 complete control)
[13] = Rate 1000 g/ha, Pre-emergence (as headed), scale 0 to 10
[14] = Rate 2000 g/ha, Pre-emergence (as headed), scale 0 to 10
[15] = flood test, listed under Postemergence, Rate 250 g/ha, scale 0 to 10, 0 no effect, 10 complete control

SMILES: COc1ccccc1-n1c(=O)on(C(=O)N(c2ccc(F)cc2)C(C)C)c1=O [Compound 30]
- Blackgrass plant response rating (blackgrass; [1]): 0
- Blackgrass plant response rating (blackgrass; [2]): 2
- Blackgrass plant response rating (blackgrass; [3]): 0
- Plant response rating, Blackgrass (blackgrass; [4]): 3
- Plant response rating, Blackgrass (blackgrass; [5]): 3
- Plant response rating, Blackgrass (blackgrass; [6]): 7
- Blackgrass plant response rating (blackgrass; [7]): 0
- Blackgrass plant response rating (blackgrass; [8]): 0
- B. signalgrass plant response rating (surinam grass; [1]): 0
- B. signalgrass plant response rating (surinam grass; [2]): 0
- B. signalgrass plant response rating (surinam grass; [3]): 0
- Plant response rating, B. signalgrass (surinam grass; [4]): 0
- Plant response rating, B. signalgrass (surinam grass; [5]): 0
- Plant response rating, B. signalgrass (surinam grass; [6]): 4
- B. signalgrass plant response rating (surinam grass; [7]): 0
- B. signalgrass plant response rating (surinam grass; [8]): 0
- Cocklebur plant response rating (cocklebur; [1]): 0
- Cocklebur plant response rating (cocklebur; [2]): 0
- Cocklebur plant response rating (cocklebur; [3]): 0
- Plant response rating, Cocklebur (cocklebur; [4]): 0
- Plant response rating, Cocklebur (cocklebur; [5]): 0
- Cocklebur plant response rating (cocklebur; [7]): 0
- Cocklebur plant response rating (cocklebur; [8]): 0
- Corn plant response rating (corn; [1]): 0
- Corn plant response rating (corn; [2]): 0
- Corn plant response rating (corn; [3]): 0
- Plant response rating, Corn (corn; [4]): 0
- Plant response rating, Corn (corn; [5]): 0
- Plant response rating, Corn (corn; [6]): 0
- Corn plant response rating (corn; [7]): 0
- Corn plant response rating (corn; [8]): 0
- Crabgrass plant response rating (crabgrass; [1]): 1
- Crabgrass plant response rating (crabgrass; [2]): 9
- Crabgrass plant response rating (crabgrass; [3]): 2
- Plant response rating, Crabgrass (crabgrass; [4]): 3
- Plant response rating, Crabgrass (crabgrass; [5]): 9
- Plant response rating, Crabgrass (crabgrass; [6]): 10
- Crabgrass plant response rating (crabgrass; [7]): 0
- Crabgrass plant response rating (crabgrass; [8]): 8
- Giant foxtail plant response rating (giant foxtail; [1]): 0
- Giant foxtail plant response rating (giant foxtail; [2]): 3
- Giant foxtail plant response rating (giant foxtail; [3]): 2
- Plant response rating, Giant foxtail (giant foxtail; [4]): 2
- Plant response rating, Giant foxtail (giant foxtail; [5]): 3
- Plant response rating, Giant foxtail (giant foxtail; [6]): 10
- Giant foxtail plant response rating (giant foxtail; [7]): 0
- Giant foxtail plant response rating (giant foxtail; [8]): 2
- Redroot pigweed plant response rating (pigweed; [1]): 0
- Redroot pigweed plant response rating (pigweed; [2]): 0
- Redroot pigweed plant response rating (pigweed; [3]): 0
- Plant response rating, Redroot pigweed (pigweed; [4]): 0
- Plant response rating, Redroot pigweed (pigweed; [5]): 0
- Plant response rating, Redroot pigweed (pigweed; [6]): 7
- Redroot pigweed plant response rating (pigweed; [7]): 0
- Redroot pigweed plant response rating (pigweed; [8]): 0
- Rape plant response rating (rape; [1]): 0
- Rape plant response rating (rape; [2]): 0
- Rape plant response rating (rape; [3]): 0
- Plant response rating, Rape (rape; [4]): 0
- Plant response rating, Rape (rape; [5]): 0
- Plant response rating, Rape (rape; [6]): 0
- Rape plant response rating (rape; [7]): 0
- Rape plant response rating (rape; [8]): 0
- Soybean plant response rating (soybean; [1]): 1
- Soybean plant response rating (soybean; [2]): 2
- Soybean plant response rating (soybean; [3]): 0
- Plant response rating, Soybean (soybean; [4]): 0
- Plant response rating, Soybean (soybean; [5]): 0
- Plant response rating, Soybean (soybean; [6]): 0
- Soybean plant response rating (soybean; [8]): 1
- Sugarbeets plant response rating (sugar beet; [1]): 0
- Sugarbeets plant response rating (sugar beet; [2]): 0
- Sugarbeets plant response rating (sugar beet; [3]): 0
- Plant response rating, Sugarbeets (sugar beet; [4]): 0
- Plant response rating, Sugarbeets (sugar beet; [5]): 0
- Plant response rating, Sugarbeets (sugar beet; [6]): 0
- Sugarbeets plant response rating (sugar beet; [8]): 0
- Wheat plant response rating (wheat; [1]): 0
- Wheat plant response rating (wheat; [2]): 0
- Wheat plant response rating (wheat; [3]): 0
- Plant response rating, Wheat (wheat; [4]): 0
- Plant response rating, Wheat (wheat; [5]): 0
- Plant response rating, Wheat (wheat; [6]): 2
- Wheat plant response rating (wheat; [8]): 0
- Nutsedge plant response rating (purple nutsedge; [1]): 0
- Nutsedge plant response rating (purple nutsedge; [2]): 0
- Nutsedge plant response rating (purple nutsedge; [3]): 0
- Plant response rating, Nutsedge (purple nutsedge; [4]): 0
- Plant response rating, Nutsedge (purple nutsedge; [5]): 0
- Plant response rating, Nutsedge (purple nutsedge; [6]): 0
- Nutsedge plant response rating (purple nutsedge; [7]): 0
- Nutsedge plant response rating (purple nutsedge; [8]): 0
- Rice plant response rating (rice; [1]): 0
- Rice plant response rating (rice; [9]): 0
- Rice plant response rating (rice; [10]): 0
- Rice plant response rating (rice; [11]): 0
- Plant response rating, Rice (rice; [12]): 0
- Rice plant response rating (rice; [13]): 0
- Rice plant response rating (rice; [14]): 0
- Rice plant response rating (rice; [15]): 0
- S. Flatsedge plant response rating (smallflower flatsedge; [1]): 0
- S. Flatsedge plant response rating (smallflower flatsedge; Pre-emergence, Rate 1000 g/ha, scale 0 to 10 (0 no effect, 10 complete control)): 0
- S. Flatsedge plant response rating (smallflower flatsedge; [9]): 0
- S. Flatsedge plant response rating (smallflower flatsedge; [10]): 0
- Plant response rating, S. Flatsedge (smallflower flatsedge; [12]): 0
- S. Flatsedge plant response rating (smallflower flatsedge; [14]): 0
- S. Flatsedge plant response rating (smallflower flatsedge; [15]): 0
- Ducksalad plant response rating (duck salad; [1]): 0
- Ducksalad plant response rating (duck salad; [9]): 0
- Ducksalad plant response rating (duck salad; [10]): 0
- Ducksalad plant response rating (duck salad; [11]): 0
- Plant response rating, Ducksalad (duck salad; [12]): 0
- Ducksalad plant response rating (duck salad; [13]): 0
- Ducksalad plant response rating (duck salad; [14]): 0
- Ducksalad plant response rating (duck salad; [15]): 0
- Barnyardgrass plant response rating (bamyardgrass; [1]): 0
- Barnyardgrass plant response rating (bamyardgrass; [9]): 0
- Barnyardgrass plant response rating (bamyardgrass; [10]): 0
- Barnyardgrass plant response rating (bamyardgrass; [11]): 0
- Plant response rating, Barnyardgrass (bamyardgrass; [12]): 0
- Barnyardgrass plant response rating (bamyardgrass; [13]): 0
- Barnyardgrass plant response rating (bamyardgrass; Rate 2000 g/ha, Pre-emergence (as headed), scale 0 to 10, 0 no effect, 10 complete control): 0
- Barnyardgrass plant response rating (bamyardgrass; [15]): 0

Source: patent US6737383B1, “Herbicidal oxadiazolidines” (priority 1999, dated 2004)
